Patent US8648215B2, “Spiroenone and uses thereof” (Joben Bio-Medical Co., Ltd., priority 2012, dated 2014)

System: MCF-7 cells
Assay: MTT assay for antiproliferation, MCF-7 cells
Type: cell-based
Details: Homo sapiens, MCF7, 24 h, read-out: percentage of inhibition
Experimental: Cell Lines and Culture. MCF-7, T-47D, and H184B5F5/M10 cells were cultured with 5% CO2 atmosphere at 37° C.; MDA-MB-231 cells were cultured without CO2 at 37° C. The MCF-7 cells were cultured in MEM containing 10% heat-inactivated FBS, 100 units/mL penicillin, 100 μg/mL streptomycin, and 1 mM sodium pyruvate. The T-47D cells were maintained in RPMI-1640 medium containing 10% heat inactivated FBS, 100 units/mL penicillin, and 100 μg/mL streptomycin. […]
Assay for Antiproliferation. To determine the antiproliferative effect, MCF-7, T-47D, MDA-MB-231, or H184B5F5/M10 cells were assessed using the MTT assay as previously reported (Ho, C. Y.; Kim, C. F.; Leung, K. N.; Fung, K. P.; Tse, T. F.; Chan, H.; Lau, C. B. Differential anti-tumor activity of Coriolus versicolor (Yunzhi) extract through p53- and/or Bcl-2-dependent apoptotic pathway in human breast cancer cells. Cancer Biol. Ther. 2005, 4, e11-e17). […] The absorbance at 570 nm was measured, and the viability of cells was calculated using the following equation: relative cell number (%)=(average absorbance of treated wells)×100/(average absorbance of blank vehicle wells).

SMILES: COC1=C(C)CC2(CC1)C(C)=CC(=O)C=C2C [compound 3, coixspiroenone]
- inhibition at 50 µM: 19.2%
